In patent publication US20150368220A1, “PHARMACEUTICAL COMPOSITION FOR TREATING OR PREVENTING STRESS URINARY INCONTINENCE OR MIXED URINARY INCONTINENCE, AND METHOD FOR SCREENING COMPOUND COMPRISED IN SAID PHARMACEUTICAL COMPOSITION” (Astellas Pharma Inc., priority 2012, published 2015):

Legend:
[1] = test system: isolated uterus; test: Isolated uterus contraction (Example 6); conditions: isolated uterus of SD female rat
Excerpt: (§1) (1) The bladder and uterus were isolated from an SD female rat having a body weight of 100 g to 500 g. For the isolated bladder, the parts below the parietal region and the triangular portion were resected to make only the body portion into a ring state, and further, one side of the tissue in the ring state was cut to a band-shaped tissue. The bladder in the band shape was isolated parallel to the median axis of the bladder to prepare strip-shaped specimens having a length of about 10 mm and a width of about 3 mm. The specimens were suspended in a 10 mL tissue bus filled with a Krebs-Henseleit solution (pH 7.4) at a resting tension of 0.5 g and the isometric contraction was recorded. For the isolated uterus, the edge portion of the uterus was cut and incised vertically, whereby a strip-shaped specimen having a width of about 6 mm was then prepared. The specimens were suspended in a 10 mL tissue bus filled with a Krebs—Henseleit solution (pH 7.4) at a resting tension of 0.5 g and the isometric contraction was recorded. […] For the bladder specimen, after the resting tension was stabilized, a 60 mM KCl solution or a 10 μM carbachol solution was added thereto to cause contraction. The specimens were washed and stabilized, and then the compounds were cumulatively administered.

[2] = biological target: T1, human MT2 receptor (Homo sapiens, UniProt P49286); test: Intracellular Ca2+ concentration by FLIPR in human MT2 receptor expressing cells (Example 2); format: cell-based; conditions: human MT2 receptor expressing HEK293 cells, 10^-5 M to 10^-12 M, FIGS. 3 and 5
T1 construct: expressed in transfected cells; vector pCDNA3.1/Zeo; co-transfected with a Gq/i chimeric G protein expression vector
T1 sequence (P49286 1-362): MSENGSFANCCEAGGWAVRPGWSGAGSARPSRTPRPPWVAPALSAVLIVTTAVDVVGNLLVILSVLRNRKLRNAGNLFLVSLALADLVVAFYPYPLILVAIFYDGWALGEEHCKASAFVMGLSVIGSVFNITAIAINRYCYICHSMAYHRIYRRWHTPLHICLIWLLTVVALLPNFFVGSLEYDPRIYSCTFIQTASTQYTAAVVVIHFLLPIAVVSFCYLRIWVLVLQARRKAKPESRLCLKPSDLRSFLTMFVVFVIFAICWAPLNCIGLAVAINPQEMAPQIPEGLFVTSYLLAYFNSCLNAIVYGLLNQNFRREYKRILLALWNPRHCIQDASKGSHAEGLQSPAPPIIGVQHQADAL
Protocol: (§2) The expression vectors for human MT1 and MT2 receptors were introduced into HEK293 cells, together with a Gq/i chimeric G protein expression vector, respectively. The incorporation was carried out in accordance with instructions, using a Lipofectoamine (registered trademark) 2000 Reagent (Invitrogen Inc.). Using Zeocin and hygromycin as a resistant agent, the cells were cultured for 15 days in the presence of 0.02 mg/mL and 0.05 mg/mL of the agents, respectively, thereby acquiring a drug-resistant clone.
(§3) The respective stably expressing cells were dispensed into 96 wells in a poly-D-lysine-coated plate (Falcon) the day before the experiment to give 40,000 cells/well, and cultured in a DMEM (Invitrogen Inc.) medium containing 10% FBS at 37° C. and 5% CO2 overnight. The medium was replaced with a loading buffer (a washing solution containing 4 μM Fluo-4AM (Dojindo Co.) (Hank's balanced salt solution (HBSS), 20 mM HEPES-NaOH, 2.5 mM probenecid)) and cultured at 37° C. and 5% CO2 for 1 hour.

[3] = test system: SD female rat; test: Effect on rat blood pressure (Example 6); format: in vivo; conditions: intravenous, at a dose for increasing the urethral pressure, FIGS. 21 and 22
Excerpt: An SD female rat was anesthetized with urethane and allowed to undergo laparotomy, and then a catheter was mounted in the bladder dome for urine leakage in the bladder. Further, a catheter was mounted in the femoral vein for the administration of a compound and a catheter was mounted in the carotid artery for the measurement of blood pressure described in Example 6 as described later. A microchip transducer catheter (Milar Instruments) was inserted toward the bladder from the external urethral meatus for the measurement of the urethral pressure, and fixed such that the transducer portion was positioned around the portion at which the urethral pressure was maximized (10.0 mm to 15.0 mm from the external urethral meatus). The catheter mounted in the carotid artery was attached to a pressure transducer and the blood pressure was measured.
(2) In the experiment for measuring the urethral pressure in Example 4, the blood pressure was measured simultaneously. After the urethral pressure and the blood pressure were stabilized, the compound was administered and a change in the blood pressure was measured.

[4] = test system: SD female rat; test: Effect on urethral pressure, microchip method (Example 4); format: in vivo; conditions: intravenous, anesthetized SD female rat, FIGS. 8 and 9
Excerpt: An SD female rat was anesthetized with urethane and allowed to undergo laparotomy, and then a catheter was mounted in the bladder dome for urine leakage in the bladder. Further, a catheter was mounted in the femoral vein for the administration of a compound and a catheter was mounted in the carotid artery for the measurement of blood pressure described in Example 6 as described later. […] The catheter mounted in the carotid artery was attached to a pressure transducer and the blood pressure was measured.

[5] = test system: isolated bladder; test: Isolated bladder contraction (Example 6); conditions: isolated bladder of SD female rat, cumulative addition
Excerpt: as §1

[6] = test system: SD female rat; test: Effect on urethral pressure, perfusion method (Example 4); format: in vivo; conditions: intravenous, anesthetized SD female rat, FIGS. 10 to 14
Protocol: An SD female rat was anesthetized with urethane and allowed to undergo laparotomy, the bladder dome was then incised, and a catheter having a barb at the tip was inserted toward the urethra from the bladder, and ligated and fixed such that the tip of the catheter was positioned around the proximal urethra. Physiological saline was injected at a predetermined flow rate into the urethra through the catheter and the urethral pressure was measured with a pressure transducer. After the urethral pressure was stabilized, compounds dissolved in physiological saline, or physiological saline containing 5% N,N-dimethylacetamide(DMA) and 0.5% Cremophor were intravenously administered at a dose of 1 μg/kg, 10 μg/kg, 100 μg/kg, or 1000 μg/kg and a change in the urethral pressure was measured.

[7] = test system: isolated urethra; test: Urethra contracting action using isolated urethra (Example 3); conditions: isolated urethra of SD female rat, cumulative 10^-5 M to 10^-12 M, FIGS. 6 and 7
Protocol: The urethra was isolated from an SD female rat having a body weight of 100 g to 500 g. The isolated urethra was incised vertically and then made into strip-shaped specimens having a width of about 3 mm. The specimens were suspended in a 10 mL tissue bus filled with a Krebs—Henseleit solution (pH 7.4) in the circular muscle direction. The Krebs—Henseleit solution was aerated at 95% O2 and 5% CO2, and warmed at 37° C. The resting tension was set to 0.5 g and the isometric contraction was recorded. After the resting tension was stabilized, a 10 μM phenylephrine solution was added thereto to cause contraction.

[8] = biological target: T2, human MT1 receptor (Homo sapiens, UniProt P48039); test: Intracellular Ca2+ concentration by FLIPR in human MT1 receptor expressing cells (Example 2); format: cell-based; conditions: human MT1 receptor expressing HEK293 cells, 10^-5 M to 10^-12 M, FIGS. 2 and 4
T2 construct: expressed in transfected cells; vector pCDNA3.1/Zeo; co-transfected with a Gq/i chimeric G protein expression vector
T2 sequence (P48039 whole entry): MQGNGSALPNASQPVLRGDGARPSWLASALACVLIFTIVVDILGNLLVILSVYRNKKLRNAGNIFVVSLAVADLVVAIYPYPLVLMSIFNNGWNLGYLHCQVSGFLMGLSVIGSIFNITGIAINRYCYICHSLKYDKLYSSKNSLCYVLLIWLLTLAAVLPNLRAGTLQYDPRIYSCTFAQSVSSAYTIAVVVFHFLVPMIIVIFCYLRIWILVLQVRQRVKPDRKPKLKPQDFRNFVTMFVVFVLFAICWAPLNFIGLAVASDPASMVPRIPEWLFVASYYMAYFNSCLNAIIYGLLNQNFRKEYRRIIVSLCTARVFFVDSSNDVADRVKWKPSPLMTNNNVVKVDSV
Protocol: as §2, §3

intracellular Ca^2+ concentration (melatonin receptor activating action) [2]: increased
intracellular Ca^2+ concentration (melatonin receptor activating action) [8]: increased
SMILES: CCC(=O)NCC[C@@H]1CCc2ccc3c(c21)CCO3 [ramelteon, (S)-N-[2-(1,6,7,8-tetrahydro-2H-indeno[5,4-b]furan-8-yl)ethyl]propionamide]
effect on the rhythmic contraction of the isolated uterus ([1]; FIG. 20): did not have an effect
contraction action on the isolated uterus ([1]; cumulative 10^-5 M to 10^-11 M): did not exhibit a contraction action
effect on blood pressure (mean blood pressure) [3]: did not increase the blood pressure
urethral pressure increasing action [4]: increased the urethral pressure
contraction action on the isolated bladder [5]: did not exhibit a contraction action
urethral pressure increasing action [6]: increased the urethral pressure
urethra contracting action [7]: contracted the isolated urethra
